Earlier results in article PMC8583936, “Machine Learning Assisted Approach for Finding Novel High Activity Agonists of Human Ectopic Olfactory Receptors” (International Journal of Molecular Sciences, 2021).
Read-outs that look alike come from different tables or passages of the source.

Tests used:
OR2W1 = target: T1, OR2W1 (Homo sapiens, UniProt Q9Y3N9); conditions: cited from earlier work
T1 sequence (Q9Y3N9 1-320): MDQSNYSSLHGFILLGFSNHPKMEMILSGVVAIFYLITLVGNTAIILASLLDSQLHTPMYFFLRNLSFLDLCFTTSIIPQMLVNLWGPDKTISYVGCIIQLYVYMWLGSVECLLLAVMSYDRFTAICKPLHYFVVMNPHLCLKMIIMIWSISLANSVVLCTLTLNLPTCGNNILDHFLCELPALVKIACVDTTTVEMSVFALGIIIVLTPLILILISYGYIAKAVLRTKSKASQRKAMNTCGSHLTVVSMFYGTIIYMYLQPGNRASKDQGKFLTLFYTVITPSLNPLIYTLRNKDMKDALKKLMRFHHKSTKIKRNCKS

OR1A1 = target: T2, OR1A1 (Homo sapiens, UniProt Q9P1Q5); conditions: cited from earlier work
T2 sequence (Q9P1Q5 1-309): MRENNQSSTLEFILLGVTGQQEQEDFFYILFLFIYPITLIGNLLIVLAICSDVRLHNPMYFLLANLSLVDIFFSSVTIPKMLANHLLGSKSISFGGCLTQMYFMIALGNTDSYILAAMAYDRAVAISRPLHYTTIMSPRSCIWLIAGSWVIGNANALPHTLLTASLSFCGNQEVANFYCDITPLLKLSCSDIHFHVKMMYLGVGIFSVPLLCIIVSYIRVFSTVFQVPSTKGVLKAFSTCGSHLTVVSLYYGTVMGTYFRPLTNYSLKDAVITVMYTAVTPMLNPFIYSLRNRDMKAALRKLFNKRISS

[1] = Table S2, ref Supplement references [2]-[12] as printed after each odorant name
[2] = Table S1, ref Supplement references [1]-[9] as printed after each odorant name

Structure (SMILES) | Class (agonist / non-agonist / antagonist / conflicting info.) for OR2W1 (OR2W1; [1]) | Class (agonist / non-agonist / conflicting info.) for OR1A1 (OR1A1; [2]) | Class (agonist / non-agonist / antagonist / conflicting info.) for OR2W1 (OR2W1; Table S2, ref Supplement references [2]-[12] as printed after each odorant name, listed as Capric acid) | Class (agonist / non-agonist / antagonist / conflicting info.) for OR2W1 (OR2W1) | Class (agonist / non-agonist / conflicting info.) for OR1A1 (OR1A1)
O=c1ccc2ccccc2o1 [Coumarin] | Conflicting info. | Non-agonist | – | – | –
CC(C)c1ccc(C=O)cc1 [Cuminaldehyde] | Non-agonist | Non-agonist | – | – | –
O=C1CCCCC1 [Cyclohexanone] | Non-agonist | Non-agonist | – | – | –
C/C=C/C(=O)C1=C(C)C=CCC1(C)C [Damascenone] | Non-agonist | Non-agonist | – | – | –
CCCCCCCCCC=O [Decanal] | Non-agonist | Conflicting info. | – | – | –
CCCCCCCCCC(=O)O [Decanoic acid / capric acid] | – | Non-agonist | Conflicting info. | – | –
CCCCCC1CCCC(=O)O1 (stereo not shown) [Delta-decalactone] | Non-agonist | Non-agonist | – | – | –
CCCCCCCC1CCCC(=O)O1 (stereo not shown) [Delta-dodecalactone] | Non-agonist | Non-agonist | – | – | –
CC(=O)C(C)=O [Diacetyl] | Non-agonist | Non-agonist | – | – | –
CCCCCC1=C(C)CCC1=O [Dihydrojasmone] | Agonist | Agonist | – | – | –
CC1(C)CC(=O)CC(=O)C1 [Dimedone] | Non-agonist | Non-agonist | – | – | –
CSSC [Dimethyl disulfide] | – | – | – | Non-agonist | Conflicting info.
CSC [Dimethyl sulfide] | Non-agonist | Non-agonist | – | – | –
CSSSC [Dimethyl trisulfide] | Non-agonist | Non-agonist | – | – | –
CCCSSSCCC [Dipropyl trisulfide] | Non-agonist | Non-agonist | – | – | –
CCCCC/C=C/C=C/C=O [E,E-2,4-decadienal] | Non-agonist | Conflicting info. | – | – | –
CCCC/C=C/C=C/C=O [E,E-2,4-nonadienal] | Non-agonist | Non-agonist | – | – | –
CC/C=C\CC/C=C/C=O [E,Z-2,6-nonadienal] | Non-agonist | Non-agonist | – | – | –
C=CCc1ccc(OC)cc1 [Estragole] | – | – | – | Agonist | Agonist
CCO [Ethanol] | Non-agonist | Non-agonist | – | – | –
CCOC(=O)C(C)CC (stereo not shown) [Ethyl 2-methylbutyrate] | Non-agonist | Non-agonist | – | – | –
CCCC(O)CC(=O)OCC (stereo not shown) [Ethyl 3-hydroxyhexanoate] | Non-agonist | Non-agonist | – | – | –
CCOC(=O)CCC(C)C [Ethyl 4-methylvalerate] | Non-agonist | Non-agonist | – | – | –
CCOC(C)=O [Ethyl acetate] | Non-agonist | Non-agonist | – | – | –
CCOC(=O)c1ccccc1 [Ethyl benzoate] | – | – | – | Non-agonist | Non-agonist
CCCC(=O)OCC [Ethyl butyrate] | Non-agonist | Non-agonist | – | – | –
CCOC(=O)/C=C/c1ccccc1 [Ethyl cinnamate] | Non-agonist | Non-agonist | – | – | –

Structure (SMILES) | Class (agonist / non-agonist / antagonist / conflicting info.) for OR2W1 (OR2W1; [1]) | Class (agonist / non-agonist / conflicting info.) for OR1A1 (OR1A1; [2]) | Class (agonist / non-agonist / antagonist / conflicting info.) for OR2W1 (OR2W1; Table S2, ref Supplement references [2]-[12] as printed after each odorant name, listed as Capric acid) | Class (agonist / non-agonist / antagonist / conflicting info.) for OR2W1 (OR2W1) | Class (agonist / non-agonist / conflicting info.) for OR1A1 (OR1A1)
CCOC(=O)C1CCCCC1 [Ethyl cyclohexanecarboxylate] | Agonist | Agonist | – | – | –
CCCCCCCCCC(=O)OCC [Ethyl decanoate] | – | – | – | Non-agonist | Non-agonist
CCCCCC(=O)OCC [Ethyl hexanoate] | Non-agonist | Agonist | – | – | –
CCOC(=O)C(C)C [Ethyl isobutyrate] | Non-agonist | Non-agonist | – | – | –
CCOC(=O)CC(C)C [Ethyl isovalerate] | Non-agonist | Non-agonist | – | – | –
CCCCCCCC(=O)OCC [Ethyl octanoate] | – | – | – | Non-agonist | Non-agonist
CCCCC(=O)OCC [Ethyl pentanoate] | – | – | – | Non-agonist | Non-agonist
CCOC(=O)C(C)=O [Ethyl pyruvate] | Non-agonist | Non-agonist | – | – | –
CCOc1cc(C=O)ccc1O [Ethyl vanillin] | Conflicting info. | Conflicting info. | – | – | –
C=CC(=O)CC [Ethyl vinyl ketone] | Non-agonist | Non-agonist | – | – | –
O=C1CCCCCCCCCCCC(=O)OCCO1 [Ethylene brassylate] | Antagonist | Conflicting info. | – | – | –
CCOC(=O)Cc1ccccc1 [Ethylphenyl acetate] | – | – | – | Non-agonist | Agonist
C=CCc1ccc(OC)c(OC)c1 [Eugenol methyl ether] | Non-agonist | Conflicting info. | – | – | –
C=CCc1ccc(O)c(OC)c1 [Eugenol] | – | – | – | Conflicting info. | Conflicting info.
C=CCc1ccc(OC(C)=O)c(OC)c1 [Eugenyl acetate] | Agonist | Non-agonist | – | – | –
C/C=C/C(=O)C(C)CC (stereo not shown) [Filbertone] | Non-agonist | Non-agonist | – | – | –
CC1=C(O)C(=O)C(C)O1 (stereo not shown) [Furaneol] | Non-agonist | Non-agonist | – | – | –
SCc1ccco1 [Furfurylthiol] | Non-agonist | Non-agonist | – | – | –
CCCCCCCC1CCC(=O)O1 (stereo not shown) [Gamma-undecalactone] | – | – | – | Non-agonist | Non-agonist
CC(C)=CCC/C(C)=C/CO [Geraniol] | Conflicting info. | Conflicting info. | – | – | –
CC(=O)OC/C=C(\C)CCC=C(C)C [Geranyl acetate] | Conflicting info. | Conflicting info. | – | – | –
COc1ccccc1O [Guaiacol] | Non-agonist | Non-agonist | – | – | –
CC(C=O)Cc1ccc2c(c1)OCO2 (stereo not shown) [Helional] | – | – | – | Agonist | Agonist
CCCCCCC=O [Heptanal] | Agonist | Conflicting info. | – | – | –
CCCCCCC(=O)O [Heptanoic acid] | Non-agonist | Non-agonist | – | – | –
CCCCCCCO [Heptanol] | Agonist | Conflicting info. | – | – | –
